Measured values from the NIST ThermoML archive (doi:10.1021/je3011979).

How the values were obtained:
[1] = xn = mol fraction of the nth substance listed; conditions: 101 kPa, Liquid, Vibrating tube method
[2] = excess molar enthalpy (molar enthalpy of mixing); xn = mol fraction of the nth substance listed; conditions: 101 kPa, Liquid, Calvet calorimetry

CCCOC(C)=O [propyl ethanoate] + CCCCCC
Conditions | excess molar enthalpy [kcal/mol] | mass density [kg/m3]
[1], 291.15 K, x1 = 0.012 | – | 663.4
[1], 291.15 K, x1 = 0.0372 | – | 668
[1], 291.15 K, x1 = 0.0924 | – | 678.5
[1], 291.15 K, x1 = 0.1648 | – | 692.7
[1], 291.15 K, x1 = 0.2357 | – | 707
[1], 291.15 K, x1 = 0.3085 | – | 722.2
[1], 291.15 K, x1 = 0.3804 | – | 737.7
[1], 291.15 K, x1 = 0.442 | – | 751.4
[1], 291.15 K, x1 = 0.5117 | – | 767.2
[1], 291.15 K, x1 = 0.5781 | – | 782.6
[1], 291.15 K, x1 = 0.64 | – | 797.3
[1], 291.15 K, x1 = 0.702 | – | 812.3
[1], 291.15 K, x1 = 0.7697 | – | 829.1
[1], 291.15 K, x1 = 0.8208 | – | 842.2
[1], 291.15 K, x1 = 0.8835 | – | 858.4
[1], 291.15 K, x1 = 0.9247 | – | 869.3
[1], 291.15 K, x1 = 1 | – | 889.6
[1], 298.15 K, x1 = 0.0175 | – | 658
[1], 298.15 K, x1 = 0.035 | – | 661.2
[1], 298.15 K, x1 = 0.0831 | – | 670.3
[1], 298.15 K, x1 = 0.1535 | – | 683.9
[1], 298.15 K, x1 = 0.2218 | – | 697.6
[1], 298.15 K, x1 = 0.2836 | – | 710.3
[1], 298.15 K, x1 = 0.3539 | – | 724.9
[1], 298.15 K, x1 = 0.4197 | – | 739.4
[1], 298.15 K, x1 = 0.4795 | – | 752.7
[1], 298.15 K, x1 = 0.5417 | – | 766.9
[1], 298.15 K, x1 = 0.604 | – | 781.5
[1], 298.15 K, x1 = 0.6583 | – | 794.5
[1], 298.15 K, x1 = 0.7242 | – | 810.6
[1], 298.15 K, x1 = 0.7772 | – | 823.9
[1], 298.15 K, x1 = 0.8357 | – | 838.9
[1], 298.15 K, x1 = 0.8934 | – | 853.9
[1], 298.15 K, x1 = 0.9187 | – | 860.5
[1], 298.15 K, x1 = 0.9749 | – | 875.7
[1], 298.15 K, x1 = 1 | – | 882.5
[1], 318.15 K, x1 = 0.0304 | – | 641.7
[1], 318.15 K, x1 = 0.0796 | – | 650.7
[1], 318.15 K, x1 = 0.1381 | – | 661.7
[1], 318.15 K, x1 = 0.2079 | – | 675.3
[1], 318.15 K, x1 = 0.2642 | – | 686.6
[1], 318.15 K, x1 = 0.3318 | – | 700.5
[1], 318.15 K, x1 = 0.3997 | – | 714.9
[1], 318.15 K, x1 = 0.4505 | – | 725.9
[1], 318.15 K, x1 = 0.5124 | – | 739.7
[1], 318.15 K, x1 = 0.5708 | – | 752.9
[1], 318.15 K, x1 = 0.622 | – | 764.8
[1], 318.15 K, x1 = 0.6815 | – | 778.9
[1], 318.15 K, x1 = 0.7426 | – | 793.7
[1], 318.15 K, x1 = 0.7992 | – | 807.7
[1], 318.15 K, x1 = 0.8648 | – | 824.4
[1], 318.15 K, x1 = 0.9227 | – | 839.3
[1], 318.15 K, x1 = 1 | – | 859.8
[1], 328.15 K, x1 = 0.0253 | – | 631.3
[1], 328.15 K, x1 = 0.0749 | – | 640.2
[1], 328.15 K, x1 = 0.1369 | – | 651.6
[1], 328.15 K, x1 = 0.2052 | – | 664.7
[1], 328.15 K, x1 = 0.2719 | – | 677.8
[1], 328.15 K, x1 = 0.3322 | – | 690.1
[1], 328.15 K, x1 = 0.3986 | – | 704
[1], 328.15 K, x1 = 0.4614 | – | 717.6
[1], 328.15 K, x1 = 0.5209 | – | 730.7
[1], 328.15 K, x1 = 0.5809 | – | 744.3
[1], 328.15 K, x1 = 0.62 | – | 753.3
[1], 328.15 K, x1 = 0.6944 | – | 770.8
[1], 328.15 K, x1 = 0.7605 | – | 786.8
[1], 328.15 K, x1 = 0.8114 | – | 799.4
[1], 328.15 K, x1 = 0.8707 | – | 814.4
[1], 328.15 K, x1 = 0.9235 | – | 828
[1], 328.15 K, x1 = 1 | – | 848.3
[2], 291.15 K, x1 = 0.074 | 0.0657 | –
[2], 291.15 K, x1 = 0.1514 | 0.13 | –
[2], 291.15 K, x1 = 0.2307 | 0.179 | –
[2], 291.15 K, x1 = 0.3056 | 0.2204 | –
[2], 291.15 K, x1 = 0.3758 | 0.2481 | –
[2], 291.15 K, x1 = 0.4417 | 0.2598 | –
[2], 291.15 K, x1 = 0.4984 | 0.2651 | –
[2], 291.15 K, x1 = 0.5492 | 0.2605 | –
[2], 291.15 K, x1 = 0.5528 | 0.2598 | –
[2], 291.15 K, x1 = 0.6101 | 0.2459 | –
[2], 291.15 K, x1 = 0.6705 | 0.2275 | –
[2], 291.15 K, x1 = 0.7361 | 0.1953 | –
[2], 291.15 K, x1 = 0.8064 | 0.157 | –
[2], 291.15 K, x1 = 0.8762 | 0.111 | –
[2], 291.15 K, x1 = 0.9422 | 0.0588 | –
[2], 298.15 K, x1 = 0.0319 | 0.0246 | –
[2], 298.15 K, x1 = 0.0736 | 0.0648 | –
[2], 298.15 K, x1 = 0.145 | 0.126 | –
[2], 298.15 K, x1 = 0.2223 | 0.178 | –
[2], 298.15 K, x1 = 0.3011 | 0.2225 | –
[2], 298.15 K, x1 = 0.366 | 0.2481 | –
[2], 298.15 K, x1 = 0.4223 | 0.2639 | –
[2], 298.15 K, x1 = 0.503 | 0.2682 | –
[2], 298.15 K, x1 = 0.559 | 0.2615 | –
[2], 298.15 K, x1 = 0.6073 | 0.2495 | –
[2], 298.15 K, x1 = 0.6518 | 0.234 | –
[2], 298.15 K, x1 = 0.7091 | 0.2089 | –
[2], 298.15 K, x1 = 0.7653 | 0.177 | –
[2], 298.15 K, x1 = 0.8334 | 0.136 | –
[2], 298.15 K, x1 = 0.8989 | 0.0899 | –
[2], 298.15 K, x1 = 0.9494 | 0.0466 | –
[2], 318.15 K, x1 = 0.0748 | 0.0691 | –
[2], 318.15 K, x1 = 0.1298 | 0.122 | –
[2], 318.15 K, x1 = 0.2004 | 0.176 | –
[2], 318.15 K, x1 = 0.2777 | 0.2249 | –
[2], 318.15 K, x1 = 0.3479 | 0.2529 | –
[2], 318.15 K, x1 = 0.4119 | 0.2674 | –
[2], 318.15 K, x1 = 0.4746 | 0.2739 | –
[2], 318.15 K, x1 = 0.5084 | 0.2729 | –
[2], 318.15 K, x1 = 0.5582 | 0.2694 | –
[2], 318.15 K, x1 = 0.6039 | 0.2581 | –
[2], 318.15 K, x1 = 0.6543 | 0.2419 | –
[2], 318.15 K, x1 = 0.7123 | 0.2185 | –
[2], 318.15 K, x1 = 0.7753 | 0.185 | –
[2], 318.15 K, x1 = 0.8288 | 0.147 | –
[2], 318.15 K, x1 = 0.8906 | 0.0997 | –
[2], 318.15 K, x1 = 0.9452 | 0.0535 | –
